We go through one compound from patent publication US20230257480A1, “ENHANCING BLOOD-BRAIN BARRIER DRUG TRANSPORT BY TARGETING ENDOGENOUS REGULATORS” (THE BOARD OF TRUSTEES OF THE LELAND STANFORD JUNIOR …, priority 2019, published 2023).

The structures appear in SMILES notation.

The experiment concerns brain parenchymal cells. The experiment in a line: Flow cytometry of brain parenchymal (CD31-/CD45-) cell uptake of tracer after ALPL inhibitor treatment. The format is in vivo, mice. The following applies: vs vehicle. The source says:
FIG. 12A is a dot plot representation of cell-surface, druggable gene candidates on brain endothelial cells. Genes were plotted by their degree of blood-brain barrier specificity (Daneman et al., PLoS One (2010). doi:10.1371/journal.pone.0013741) and correlation with plasma uptake. Genes were colored by their upregulation (brown) or downregulation (green) with age. FIG. 12B includes representative images of calcified nodules (Alizarin red staining) detected in aged (23 m.o.—bottom panel) but not young (3 m.o.—top panel) mice, recapitulating nodules seen in pericyte-deficient Pdgfbret/ret mice (Keller et al., Nat. Genet. (2013). doi:10.1038/ng.2723) (representative image of n=5 mice per age). FIG. 12C includes representative images of Type I Collagen expression (green) in Lectin^+ vasculature (red) in the cerebral cortex of young (3 m.o.—left panels) and aged (23 m.o.—right panels) mice. Scale bar=40 microns. FIG. 12D includes representative images of ALPL expression (yellow) in AQP4^+ vasculature (purple) in the cerebral cortex of young (3 m.o.—left panels) and aged (23 m.o.—right panels) mice. Scale bar=40 microns. FIG. 12E is a graph illustrating quantification of ALPL expression in the cerebral cortex vasculature of young (3 m.o.) and aged (23 m.o.) mice (n=7, two-sided t-test; mean+/−s.e.m.). FIG. 12F is a schematic diagram illustrating cerebrovascular ALPL inhibition. Aged (22 m.o.) mice were injected intraperitoneally with vehicle or ALPL inhibitor twice a day for three days before intravenous injection of plasma, human holotransferrin, or transferrin receptor antibody. Uptake in the brain endothelium and parenchyma was assessed by flow cytometry and confocal microscopy of the cortex and hippocampus. FIG. 12G includes representative images of ectopic ALPL activity (red) in the cerebral cortex vasculature of aged (22 m.o.) mice treated with ALPL inhibitor (anti-ALPL) or vehicle and in young (3 m.o.) mice. FIG. 12H is a graph illustrating quantification of ALPL activity in the cerebral cortex vasculature of aged (22 m.o.) mice treated with ALPL inhibitor (anti-ALPL) or vehicle and in young (3 m.o.) mice (n=6-9, one-way ANOVA with Tukey's multiple comparisons correction; mean+/−s.e.m.). FIGS. 12I-12L include graphs illustrating flow cytometry quantification of brain parenchymal (CD31−/CD45−) cell uptake of plasma in aged (22 m.o.) mice (FIG. 12I); plasma in young (3 m.o.) mice (FIG. 12J); human holo-transferrin (hu-Tf) in aged (22 m.o.) mice (FIG. 12K); or transferrin receptor antibody (TfR Ab) in aged (22 m.o.) mice (FIG. 12L) after ALPL inhibitor (anti-ALPL) and vehicle treatment, as assessed by the percent (%) of parenchymal cells that are tracer^+ and the relative mean fluorescence intensity (MFI) of tracer^+ parenchymal cells (for plasma, n=4; for hu-Tf, n=5-6; for TfR Ab, n=9, two-sided t-test; mean+/−s.e.m.). Tracer refers to plasma, hu-Tf, or TfR Ab FIG. 12M includes representative images of transferrin receptor antibody (TfR Ab) in the cortical vasculature (red) and parenchymal cells of ALPL inhibitor-treated aged (22 m.o.) mice. Arrowheads indicate TfR Ab^+ NeuN neurons. Scale bar=40 microns (left) and 10 microns (right). Data were replicated in at least 2 independent experiments.
CNS cell isolation adopted previously described methods42,139,140. Briefly, cortices and hippocampi were microdissected, minced, and digested using the Neural Dissociation Kit (Miltenyi). Suspensions were filtered through a 100 μm strainer and myelin removed by centrifugation in 0.9 M sucrose. The remaining myelin-depleted cell suspension was blocked for ten minutes with Fc preblock (CD16/CD32, BD 553141) on ice and stained for 30 minutes with antibodies to distinguish brain endothelial cells (CD31+/CD45−), astrocytes (ACSA-2+), and neurons (NeuN+ or CD90.2/Thy1.2+). For analysis of plasma uptake, at least 1,000 cells of each population of interest were analyzed per sample. […]
(A flow cytometer gives signals particle by particle.)

In the case of `COc1ccc(OC)c(S(=O)(=O)Nc2cnc3ccccc3c2)c1` [ALPL inhibitor, 2,5-Dimethoxy-N-(quinolin-3-yl)benzenesulfonamide], the “parenchymal uptake of transferrin receptor antibody” value (aged (22 m.o.) mice, TfR Ab 20 mg/kg i.v.) is given as “increased”. Besides, the “parenchymal uptake of human holo-transferrin” value (aged (22 m.o.) mice, hu-Tf 40 mg/kg i.v.) was “increased”. Moreover, for the setting “aged mice, parenchymal cells (MFI)”, the “amount of plasma taken up by participating cells” value is recorded as “increased”. Further, the “percentage of plasma+ cells” value (aged mice, parenchymal cells) is “did not change”. Besides, under “aged mice”, the “plasma transport across the endothelium to brain parenchymal cells” value is “increased”. Besides, the “plasma transcytosis across the young BBB to the parenchyma” value (young (3 m.o.) mice) is listed as “did not significantly enhance”.
